The test system of data set [1] is mitogen or antigen stimulated murine or human lymphocytes. The data set can be described thus: PBMC proliferation assay (tritiated thymidine incorporation). Format: cell-based. The conditions noted are these: Homo sapiens, Lymphocyte. As to the method: (§1) Immunomodulatory 3-aminosteroids (FIGS. 3–7 and Table I) were identified in vitro based on their ability to inhibit homo- or hetero-typic aggregation and subsequent proliferation of mitogen or antigen stimulated murine or human lymphocytes. Human or mouse lymphocytes were isolated from peripheral blood by Ficoll-Hypaque as described (Stoeckert et al., (1990) Exp. Hematol. 18. 1164–1170). For mitogen stimulation, 1×10^5 cells per well were plated in varying amounts of 3-aminosteroid compounds and assayed for aggregation and proliferation after twelve hours of stimulation by PHA-PMA mitogens. […] For antigen stimulation, lymphocytes were isolated from BALBc mice which had been sensitized to Aspergillus fumigatus antigen for three weeks and plated at 1×10^5 cells per well with or without 100 units of Aspergillus fulmigatus antigen. Cells were grown for three days and then scored for cellular aggregates and proliferation as described above in the presence or absence of increasing amounts of Compound-B or analogue compounds. […] Similar results were obtained in assays using antigen mediated response to compounds (not shown). […] All of the active compounds shown in Table I as well as rational modifications of these compounds as depicted in FIGS. 8–10 are embodiments of the invention
On the technique in general: Uptake of a labelled nucleoside into DNA is a usual measure of proliferation.

Data set [2] is described as follows: Solubility during work-up. The format is physicochemical. The conditions noted are these: 10% acetonitrile/water, acidified with TFA. As to the method: The reductive aminations were accomplished by similar procedures. The sterol (500 mg for, […] for compounds 7 and 8) was dissolved in 2-propanol (25 mL). Ethylenediamine (1 mL) was added to the flask. The 3-oxo sterol and ethylenediamine were allowed to stir at room temperature for approximately four hours. Sodium cyanoborohydride (250 mg for compound 6 and 100 mg for compounds 7 and 8) was dissolved in 2-propanol (2 mL) and acetic acid (1 mL). The sodium cyanoborohydride solution was added to the reaction flask after evolution of gas had almost ceased (approximately five minutes). In all cases the reaction was complete before the first TLC was taken (less than five minutes). The work-up was the same for all analogues, solution was made basic (pH 10–11) by the addition of carbonate buffer. The aqueous layer was repeatedly extracted with chloroform. The chloroform was removed in vacuo and the crude 3-aminosteroid was dissolved in 10% acetonitrile/water, acidified with TFA. The solubility of compound I was very poor. The solutions were passed through a […] Gelman vacu-cap filter. The 3-aminosteroid isomers were separated by reverse phase chromatography on C18 (Dynamax, 300, 8 μM, 21.6 mm ID, 25 cm/L) using a gradient of acetonitrile in water with 0.1% TFA throughout. […]

The test system of data set [3] is mitogen or antigen stimulated murine or human lymphocytes. The data set can be described thus: Lymphocyte aggregation assay (PHA-PMA mitogen stimulated). The conditions noted are these: Homo sapiens, Lymphocyte, 12 h, aggregates of greater than 100 cells, PHA-PMA stimulation; read-out: Aggregation Assay Minimum Effective Conc. Format: cell-based. As to the method: as §1

For a further data set, the system named is IL-9. The data set can be described thus: IL-9 expression in mitogen-stimulated lymphocytes (RT-PCR). The format is cell-based, human. The conditions noted are these: FIG. 13. As for the experimental part: Total cellular RNA was extracted after 24 hours from cultured PBMC, murine spleen cells and M07e cells using RNA PCR corekit (Perkin-Elmer, Foster City Calif.) according to manufacturer's instructions. One microgram of RNA from each source was denatured for five minutes at 65° C. and then reverse transcribed into cDNA using a 20 μl reaction mixture containing 50 units of MLV Reverse Transcriptase, one unit per μl RNAse inhibitor. […] oligo d(T)16 primer, 1 mM each dATP, dCTP, dGTP, dTTP, 50 mM KCl, 10 mM Tris-HCl, pH 7.0, 25 mM MgCl2. The reaction mixture was pipetted into thermocycler tubes, placed in a PCR thermal cycler and subjected to one cycle (fifteen minutes at 42° C., five minutes at 99° C. and five minutes at 4° C.). A mock reverse transcription reaction was used as a negative control. […]
Immunomodulatory 3-aminosteroids (FIGS. 3–7 and Table I) were identified in vitro based on their ability to inhibit homo- or hetero-typic aggregation and subsequent proliferation of mitogen or antigen stimulated murine or human lymphocytes. […] Cells were grown for three days and then scored for cellular aggregates and proliferation as described above in the presence or absence of increasing amounts of Compound-B or analogue compounds. […]

The test system of data set [4] is mice sensitized to antigen. The data set can be described thus: Airway hyperresponsiveness in mice sensitized to Aspergillus fumigatus antigen (APTI). The format is in vivo, mouse. As for the experimental part: (§2) DBA2, C57BL6 or B6D2F1 mice, five to six weeks of age, were obtained from the National Cancer Institute or Jackson Laboratories. Animals were housed in high-efficiency particulate filtered air laminar flow hoods in a virus and antigen free facility and allowed free access to pelleted rodent chow and water for three to seven days prior to experimental manipulation. The animal facilities were maintained at 22° C. and the light:dark cycle is automatically controlled (10:14 hour cycle).
(§3) Phenotyping and efficacy of pretreatment. Animals either received no pretreatment or were sensitized by nasal aspiration of Aspergillus fumigatus antigen to assess the effect on bronchial hyperresponsiveness, bronchoalveolar lavage and serum IgE. Mice were challenged with Aspergillus or saline intranasally (Monday, Wednesday and Friday for three weeks) and phenotyped twenty-four hours after the last dose. The effect of pretreatment by aminosteroids was used to assess the effect of down-regulating the IL-9 pathway in mice. To determine the bronchoconstrictor response, respiratory system pressure was measured at the trachea and recorded before and during exposure to the drug. Mice were anesthetized and instrumented as previously described. (Kleeberger et al., (1990) Am. J. Physiol. 258, L313–320; Levitt et al., (1995) Clin. Exp. Allergy 25, 61–63; Ewart et al., (1995) J. Appl. Physiol. 79, 560–566). Airway responsiveness was measured to one or more of the following: 5-hydroxytryptamine, acetylcholine, atracurium or a substance-P analogue. A simple and repeatable measure of the change in peak inspiratory pressure following bronchoconstrictor challenge was used which has been termed the Airway Pressure Time Index (APTI). The APTI was assessed by the change in peak respiratory pressure integrated from the time of injection until the peak pressure returns to baseline or plateau.
(§4) Active compounds identified in vitro were tested in vivo for their ability to suppress airway hyperresponsiveness, lung eosinophilia and serum Ig levels using assays described above. […]

A further data set concerns eosinophils. The data set can be described thus: Bronchoalveolar lavage cellular analysis (eosinophilia) in sensitized mice. The note with it: FIG. 16. Format: in vivo, mouse.
Text: as §3, with “plateau. […]” for “plateau.”

Data set [5] has as its system total serum IgG1, IgG2a and IgE. The data set can be described thus: Serum Ig ELISA in sensitized DBA2J mice. Format: in vivo, mouse. As to the method: Samples were centrifuged to separate cells and serum was collected and used to measure total IgG1, IgG2a and IgE levels. Samples not measured immediately were frozen at −20° C.
Serum Igs were measured using an ELISA antibody-sandwich assay. Microtiter plates were coated, 50 μl per well, with rat anti-murine IgG1, IgG2a or IgE antibody (Southern Biotechnology and PharMingen) at a concentration of 2.5 μg/ml in coating buffer of sodium carbonate-sodium bicarbonate with sodium azide. Plates were covered with plastic wrap and incubated at 4° C. for sixteen hours. The plates were washed three times with a wash buffer of 0.05% Tween-20 in phosphate-buffered saline, incubating for five minutes for each wash. Blocking of nonspecific binding sites was accomplished by adding 200 μl per well 5% bovine serum albumin in phosphate-buffered saline, covering with plastic wrap and incubating for two hours at 37° C. After washing three times with wash buffer, duplicate 50 μll test samples were added to the wells. Test samples were assayed after being diluted 1:10, 1:50 and 1:100 with 5% bovine serum albumin in wash buffer. In addition to the test samples, a set of Ig standards (PharMingen) at various liner concentrations in 5% bovine serum albumin in wash buffer, were assayed to generate a standard curve. A blank of no sample or standard was used to zero the plate reader (background). After adding samples and standards, the plate was covered with plastic wrap and incubated for two hours at room temperature. After washing three times with wash buffer, 50 μl of secondary antibody rat anti-murine IgG1, IgG2a or IgE-horseradish peroxidase conjugate was added at a concentration of 250 ng/ml in 5% bovine serum albumin in wash buffer. […] After five to ten minutes the reaction was stopped with 50 μl of 12.5% sulfuric acid and absorbance was measured at 490 nm on a Dynatech® MR5000 plate reader. A standard curve was constructed from the standards with antigen concentration on the x axis (log scale) and absorbance on the y axis (linear scale). […]
In general terms: In an ELISA, binding on a coated surface is turned into a signal by an enzyme label.

For the next data set, the system named is D2 naive mice. The data set can be described thus: Bronchial hyperresponsiveness in D2 naive mice (APTI). The format is in vivo, mouse. The note with it: FIG. 14. As to the method: as §2, §3, §4
For data set [6] the following is noted: rat, in vivo, 1 mg/kg/day. As to the method:
To determine the mechanism by which 3-aminosteroid compounds function to suppress the asthmatic response to allergen, comparative physiologic assays were carried out utilizing the extensively studied Sprague-Dawley rat model (Scaccianoce et al., (1995) Neuroendocrinology 62, 32–38; Hatzinger et al., (1996) Neuroendocrinology 64, 349–356). Animals were administered 1 mg/kg/day of either the corticosteroid Dexamethasone or Compound-B and analyzed at ten hours for corticosterone and ACTH. […] Similar results were found for ACTH levels (>100 fold) supporting the finding that Compound-B is acting by a different mechanism from dexamethasone.

A short description of data set [7]: 28 day tolerance study in Sprague-Dawley rats (weight, spleen). Format: in vivo, rat. The conditions noted are these: drug administered for 28 days.
The mark [8] stands for this setting: FIG. 11 and FIG. 12, mitogen-stimulated lymphocytes, read-out: IC50 for suppression of lymphocyte aggregation and proliferation.
The mark [9] stands for this setting: DBA2J mice sensitized to antigen, FIG. 15.

Converted amounts (≈) assume the structure as drawn. Like-named read-outs stand apart in the source and are kept apart here. A value given as a limit tells only on which side of the number the result lay.

Take `C[C@@H](CNC(=O)N1CCCC1)C1CCC2C3CC[C@@H]4C[C@@H](NCCN)CC[C@]4(C)C3CC[C@@]21C` (stereo partly shown) [Compound-I]: the IC50 in [1] (tritiated thymidine incorporation, read-out: PBMC Proliferation ASSAY IC50) stood at 0.23 µg/mL (≈ 0.487 µM). For the same compound, the solubility entry in data set [2] is recorded as “very poor”.
As to `COC(=O)CC[C@@H](C)C1CCC2C3C[C@@H](O)[C@H]4C[C@@H](NCCN)CC[C@]4(C)C3CC[C@@]21C` (stereo partly shown) [Compound-A], the minimal effective concentration in data set [3] was 1 µg/mL. Also, the IC50 in [1] (setting [8]) was 0.5 µg/mL (≈ 1.11 µM). Also, in the data set with IL-9, the “expression of IL-9 in mitogen-stimulated lymphocytes” value is given as “block the expression of IL-9”. In data set [4] (BALBc mice, 2.5 mg/kg administered twice per week, FIG. 19), the “block of airway hyperresponsiveness” value is on record as “able to block airway hyperresponsiveness”. Besides, in data set [4] (setting [9]), the “block of airway hyperresponsiveness” value is given as “able to block airway hyperresponsiveness” and the “efficacy compared with dexamethasone” value was “more efficacious than the commonly used corticosteroid, dexamethasone”. Further, the “eosinophilia (eosinophils in bronchoalveolar lavage)” value in the data set with eosinophils was “eosinophils were the particular cell type affected”. Further, the “serum IgG2a (TH1 associated immunoglobulin)” value in data set [5] is listed as “not”. For the same compound, the “total serum IgG1” value in data set [5] (FIG. 17) is “suppressed”. Moreover, the “total serum IgE” value in data set [5] (FIG. 18) was “suppressed”.
For the compound `COC(=O)CC[C@@H](C)C1CCC2C3C(CC[C@@]21C)[C@@]1(C)CC[C@H](NCCN)C[C@H]1C[C@H]3O` (stereo partly shown) [Compound-B], the minimal effective concentration in data set [3] turned out to be 10 µg/mL. For the same compound, in data set [1] (setting [8]), the IC50 was found to be 2.5 µg/mL (≈ 5.57 µM). Also, the “expression of IL-9 in mitogen-stimulated lymphocytes” value in the data set with IL-9 is reported as “block the expression of IL-9”. In addition, the “effective dose compared with Compound-D” value in the data set on D2 naive mice is “effective at a lower dose than Compound-D”. The “suppression of bronchial hyperresponsiveness” value in the data set on D2 naive mice (ip) is “effective in suppressing bronchial hyperresponsiveness”. Besides, the “effect on plasma corticosterone” value in [6] was “no significant effect”.
Turning to `C[C@@H]1C[C@H]2[C@@H]3CCC4=CC(=O)C=C[C@]4(C)[C@@]3(F)[C@@H](O)C[C@]2(C)[C@@]1(O)C(=O)CO` [dexamethasone], in data set [6], the “suppression of ACTH levels” value is listed as more than 100 fold and the “suppression of absolute levels of plasma corticosterone” value was more than 450 fold. Further, the body weight entry in data set [7] is “weight loss”. Moreover, the “spleen (splenic atrophy)” value in data set [7] (FIG. 21) is given as “splenic atrophy”.

Source of the values: US7074778B2, “Asthma associated factors as targets for treating atopic allergies including asthma and related disorders” (Genaera Corporation, priority 1999, dated 2006).
